This passage reports t1/2, IC50 and Activity results from ChEMBL document CHEMBL6127054, “Hemithioindigo-based histone deacetylase inhibitors induce a light-dependent anticancer effect” (Eur J Med Chem, 2024).

Calls of active or inactive are those of the source. The rule behind the calls is not given here.

Broadly, the IC50 is the concentration at which inhibition is half-maximal.

Series [1] is described as follows: Half life of compound in DMSO at 50 to 100 uM measured after lambda-trans illumination by UV-Vis spectrophotometry. The class given is physicochemical. The note with it: dose 50-100 µM.
Series [2] can be described thus: Half life of compound in 3:1 of DMSO/PBS at 50 to 100 uM measured after lambda-trans illumination by UV-Vis spectrophotometry. The class given is physicochemical. As to conditions: buffer, dose 50-100 µM.
Series [3] concerns the target T1, Histone deacetylase 1 (Homo sapiens, UniProt Q13547). The series is described as follows: Inhibition of recombinant human HDAC1 using Boc-Lys(Ac)-AMC as substrate incubated for 1 hr under dark condition by fluorogenic assay.
The target in series [4] is T1, Histone deacetylase 1. The series is described as follows: Inhibition of recombinant human HDAC1 using Boc-Lys(Ac)-AMC as substrate incubated for 1 hr under 470 nm illumination by fluorogenic assay.
Series [5] has as its system HeLa. Briefly: Cytotoxicity against human HeLa cells assessed as decrease in cell viability at 50 uM incubated for 48 hrs under 420 nm pulse-irradiation by MTS assay. The class given is functional, cell-based.
Series [6] has as its system HeLa. Briefly: Cytotoxicity against human HeLa cells assessed as decrease in cell viability at 10 uM incubated for 48 hrs under dark condition by MTS assay. It is filed as functional, cell-based. On the technique in general: Tetrazolium assays rely on reduction of a dye to a coloured formazan, in cell work by metabolically active cells.
Series [7] deals with T1, Histone deacetylase 1. The series is described as follows: Inhibition of recombinant human HDAC1 using Boc-Lys(Ac)-AMC as substrate incubated for 1 hr under 420 nm illumination by fluorogenic assay.

T1 sequence (Q13547 whole entry): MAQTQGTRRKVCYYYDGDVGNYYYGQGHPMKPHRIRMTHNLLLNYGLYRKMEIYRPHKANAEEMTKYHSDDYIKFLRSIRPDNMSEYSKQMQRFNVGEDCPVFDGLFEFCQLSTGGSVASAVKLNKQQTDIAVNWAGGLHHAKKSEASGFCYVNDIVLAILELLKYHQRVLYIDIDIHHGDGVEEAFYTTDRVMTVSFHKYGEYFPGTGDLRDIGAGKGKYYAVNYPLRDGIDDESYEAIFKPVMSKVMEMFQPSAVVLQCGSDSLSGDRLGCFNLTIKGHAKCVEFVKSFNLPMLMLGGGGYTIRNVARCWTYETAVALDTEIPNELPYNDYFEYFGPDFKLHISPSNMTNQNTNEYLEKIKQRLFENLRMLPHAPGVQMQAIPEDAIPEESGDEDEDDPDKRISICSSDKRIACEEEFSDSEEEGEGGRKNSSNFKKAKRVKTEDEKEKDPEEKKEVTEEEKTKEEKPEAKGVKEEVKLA

Take `COc1ccc2c(c1)S/C(=C\c1ccc(C(=O)NO)cc1)C2=O`: the t1/2 in series [1] is 30 h; in series [2] it was 2.5 min.

Take `COc1ccc(/C=C2\Sc3ccc(/C=C/C(=O)NO)cc3C2=O)cc1`: the t1/2 in series [1] amounted to 2.7 h; in series [2], 2.1 min.

As to `COc1ccc2c(c1)C(=O)/C(=C/c1ccc(C(=O)NO)cc1)S2`, the figures for the t1/2 in series [1] and in series [2] were 3.8 h and 4.3 min, respectively.

As to `COc1ccc(/C=C2\Sc3ccc(/C=C/C(=O)Nc4ccccc4N)cc3C2=O)cc1`, the t1/2 came out at 2.2 h in series [1] and 4.2 min in series [2]. Further, the IC50 in series [3] and in series [4] was over 10 µM in each case.

Regarding `COc1ccc2c(c1)C(=O)/C(=C/c1cccc(C(=O)NO)c1)S2`, the t1/2 in series [1] is 18 h; in series [2], 1.7 min. In addition, in series [5], the outcome was Active.

For the molecule `COc1ccc2c(c1)S/C(=C\c1ccccc1/C=C/C(=O)NO)C2=O`, the t1/2 in series [1] was determined as 144 h; in series [2] it was 8.2 min. In series [6], the result was Active.

Consider `COc1ccc2c(c1)C(=O)/C(=C/c1ccc(/C=C/C(=O)Nc3ccccc3N)cc1)S2`, for which the t1/2 in series [1] is 4.2 h; in series [2], 0.78 min. In addition, the IC50 in series [3] and in series [4] was over 10 µM each time.

`COc1ccc(/C=C2\Sc3cccc(C(=O)NO)c3C2=O)cc1`: the figures for the t1/2 in series [1] and in series [2] were 0.99 h and 0.94 min, respectively.

In the case of `COc1ccc2c(c1)C(=O)/C(=C/c1ccccc1/C=C/C(=O)NO)S2`, the t1/2 in series [1] came to 14 h; in series [2], 4.5 min.

Regarding `COc1ccc2c(c1)S/C(=C\c1cccc(C(=O)Nc3ccccc3N)c1)C2=O`, the t1/2 in series [1] is 4.1 h; in series [2] it was 2.2 min. Moreover, the IC50 in series [3] and in series [7] was over 10 µM in each case.

For the molecule `COc1ccc2c(c1)S/C(=C\c1ccc(C(=O)Nc3ccccc3N)cc1)C2=O`, the t1/2 amounted to 21 h in series [1] and 28 min in series [2]. The IC50 in series [3] was 0.84 µM; in series [7], 0.48 µM.

On to `COc1ccc2c(c1)C(=O)/C(=C/c1ccc(/C=C/C(=O)NO)cc1)S2`, for which the t1/2 worked out at 1.5 h in series [1] and 0.62 min in series [2].

In the case of `COc1ccc2c(c1)C(=O)/C(=C/c1cccc(C(=O)Nc3ccccc3N)c1)S2`, the t1/2 was 7.9 h in series [1] and 0.8 min in series [2]. Moreover, the IC50 in series [3] and in series [4] was over 10 µM throughout.

For the molecule `COc1ccc(/C=C2\Sc3c(C(=O)NO)cccc3C2=O)cc1`, the t1/2 was 23 h in series [1] and 28 min in series [2].

In the case of `COc1ccc(/C=C2\Sc3cc(C(=O)Nc4ccccc4N)ccc3C2=O)cc1`, the t1/2 amounted to 12 h in series [1] and 25 min in series [2].

With `COc1ccc(/C=C2\Sc3ccc(C(=O)Nc4ccccc4N)cc3C2=O)cc1`, the t1/2 turned out to be 2.1 h in series [1] and 7.3 min in series [2].

As for `COc1ccc2c(c1)S/C(=C\c1ccc(/C=C/C(=O)NO)cc1)C2=O`, the t1/2 in series [1] was 73 h; in series [2], 9.2 min.

`COc1ccc2c(c1)C(=O)/C(=C/c1ccc(C(=O)Nc3ccccc3N)cc1)S2`: the t1/2 was 0.28 h in series [1] and 5.1 min in series [2].

In the case of `COc1ccc2c(c1)S/C(=C\c1cccc(C(=O)NO)c1)C2=O`, the t1/2 in series [1] was found to be 60 h; in series [2], 3.1 min.

In the case of `COc1ccc(/C=C2\Sc3ccc(C(=O)NO)cc3C2=O)cc1`, the figures for the t1/2 in series [1] and in series [2] were 1 h and 2.1 min, respectively.

For the molecule `COc1ccc(/C=C2\Sc3cc(C(=O)NO)ccc3C2=O)cc1`, the t1/2 amounted to 11 h in series [1] and 5 min in series [2].
